# Literature values in patent US20110129510A1, “FIBROUS SURFACE STRUCTURE CONTAINING ACTIVE INGREDIENTS WITH CONTROLLED RELEASE OF ACTIVE INGREDIENTS, USE THEREOF AND METHOD FOR THE PRODUCTION THEREOF” (BASF SE, priority 2008, published 2011).
# Where two headings read alike, the source gives them in different places.
Solubility in water (25° C.),SMILES,other results
,NC(=O)N1c2ccccc2C=Cc2ccccc21 [Carbamazipine],Solubility in water (RT): 945.1 µg/mL
<10 µg/mL,Clc1ccccc1C(c1ccccc1)(c1ccccc1)n1ccnc1 [Clotrimazole],
,CCOC(=O)C1=C(C)NC(C)=C(C(=O)OC)C1c1cccc(Cl)c1Cl (stereo not drawn) [Felodipine],Solubility in water (22° C.): 4.53 µg/mL
0.03685 µg/mL,COC1=CC(=O)C[C@@H](C)[C@]12Oc1c(Cl)c(OC)cc(OC)c1C2=O [Griseofulvin],
14 µg/mL,COc1ccc2c(c1)c(CC(=O)O)c(C)n2C(=O)c1ccc(Cl)cc1 [Indomethacin],
,CC(=O)N1CCN(c2ccc(OCC3COC(Cn4ccnc4)(c4ccc(Cl)cc4Cl)O3)cc2)CC1 (stereo not drawn) [Ketoconazole],Solubility in water (37° C.): 80 µg/mL
